A short description of series [1]: Hepatocytes stability, human. The class given is in vitro ADME.
Series [2] can be described thus: Hepatocytes stability, rat. In kind it is in vitro ADME.
Series [3] in a line: Liver microsome stability, rat. The class given is in vitro ADME. The following applies: liver microsomes.
A short description of series [4]: Hepatocytes stability, mouse. The class given is in vitro ADME.
Series [5] is described as follows: Liver microsome stability, mouse. In kind it is in vitro ADME. The settings on record: liver microsomes. For orientation: Liver microsomes are vesicles of endoplasmic reticulum, rich in cytochrome P450 enzymes.
A short description of the next series: Mouse PK. The settings on record: iv 3 mg/kg. In kind it is in vivo.
Series [6] can be described thus: Liver microsome stability, human. The class given is in vitro ADME. The settings on record: liver microsomes.
A short description of a further series: Rat PK. The class given is in vivo. The settings on record: iv 2 mg/kg.
The target of the next series is SARS-CoV-2 M^pro (Severe acute respiratory syndrome coronavirus 2, UniProt P0DTD1). Put plainly: SARS-CoV-2 Mpro enzymatic assay. In kind it is biochemical.
The subject of the next series is HCoV-OC43. In kind it is in vivo. The settings on record: intraperitoneal injection, 7 days, 6 neonatal mice per group.
Series [7] is described as follows: Predicted human clearance by simple allometric scaling. The settings on record: simple allometric scaling method.
Setting [8] is: vehicle 40% PEG400 + 60 %saline.

In the case of `CC(C)(C)[C@H](NC(=O)C(F)(F)F)C(=O)N1C[C@@H]2CCC[C@@H]2[C@H]1C(=O)N[C@H](C#N)C[C@@H]1CCNC1=O` [2a], the CLint scaled (in general, a measure of how fast metabolising enzymes remove a compound, apart from limits set by blood flow) in [1] was less than 17.8 mL/min/kg; in series [2], 32 mL/min/kg; in [3], less than 17.3 mL/min/kg; in series [4], 435 mL/min/kg; in [5], 262 mL/min/kg; in series [6], 13 mL/min/kg. Moreover, the CL turned out to be 79.3 mL min^−1 kg^−[1] in “Mouse PK” (vehicle saline) and 75.4 mL min^−1 kg^−[1] in “Rat PK” (vehicle saline).
As to `N#C[C@H](C[C@@H]1CCNC1=O)NC(=O)[C@@H]1[C@H]2CCC[C@H]2CN1C(=O)[C@@H](NC(=O)C(F)(F)F)C1CCCCC1` [3a], the CLint scaled in [1] was less than 17.8 mL/min/kg; in series [2], 51 mL/min/kg; in series [3] it was less than 17.3 mL/min/kg; in series [4], 455 mL/min/kg; in series [5], 215 mL/min/kg; in series [6], 19 mL/min/kg. Further, the CL in the series “Mouse PK” (vehicle saline) was 92.2 mL min^−1 kg^−[1]; in the series “Rat PK” (vehicle saline), 62.7 mL min^−1 kg^−[1].
`N#C[C@H](C[C@@H]1CCNC1=O)NC(=O)[C@@H]1[C@H]2CCC[C@H]2CN1C(=O)[C@@H](NC(=O)C(F)(F)F)c1ccc(F)cc1` [3b]: the “Fold weaker in enzymatic potency relative to 2a” value at SARS-CoV-2 M^pro (relative to 2a) was found to be 4 fold.
As to `CC(=O)N[C@H](C(=O)N1C[C@@H]2CCC[C@@H]2[C@H]1C(=O)N[C@H](C#N)C[C@@H]1CCNC1=O)C1CCCCC1` [3c], the “Folds loss in enzymatic and cell potencies” value on SARS-CoV-2 M^pro (P3 cap modifications, enzymatic and cell potencies) was 3–10 folds.
Regarding `CC(C)(C)NC(=O)C(=O)[C@H](C[C@@H]1CCNC1=O)NC(=O)[C@@H]1[C@H]2CCC[C@H]2CN1C(=O)[C@@H](NC(=O)C(F)(F)F)C1CCCCC1` [4a], the CLint scaled in [1] was less than 17.8 mL/min/kg; in [2], 42 mL/min/kg; in series [3], 25 mL/min/kg; in series [4], 1020 mL/min/kg; in series [5], 212 mL/min/kg. Besides, in the series on HCoV-OC43 (high dosing group), the “Mice survived at day 14” value was 6/6. In the series with HCoV-OC43 (low dosing group), the Mice survived entry was “four out of six”. Moreover, the results for the CL in “Mouse PK” (setting [8]) and in the series “Rat PK” (setting [8]) were 2.50 mL min^−1 kg^−[1] and 2.55 mL min^−1 kg^−[1], respectively. For the same compound, the Predicted human clearance result in series [7] is recorded as “about 2.9 ml/min/kg”.
With `CC(C)(C)NC(=O)C(=O)[C@H](C[C@@H]1CCNC1=O)NC(=O)[C@@H]1[C@H]2CCC[C@H]2CN1C(=O)[C@@H](NC(=O)C(F)(F)F)C1CCCC1` [4c], the CL in “Mouse PK” (setting [8]) is 5.06 mL min^−1 kg^−[1].
For the compound `CC(C)(C)[C@H](NC(=O)C(F)(F)F)C(=O)N1C[C@H]2[C@@H]([C@H]1C(=O)N[C@H](C#N)C[C@@H]1CCNC1=O)C2(C)C` [nirmatrelvir, reference compound], the CLint scaled is less than 17.8 mL/min/kg in series [1]; less than 29.9 mL/min/kg in series [2]; less than 17.3 mL/min/kg in series [3]; 169 mL/min/kg in series [4]; 329 mL/min/kg in series [5]; 29 mL/min/kg in series [6]. Also, the CL in the series “Mouse PK” (vehicle saline) was 30.2 mL min^−1 kg^−[1]; in “Rat PK” (vehicle saline) it was 42.0 mL min^−1 kg^−[1].

Source of the values: article PMC10176891 (Bioorganic & Medicinal Chemistry Letters, 2023).
